pIC50: −log10 of the molar value. Counter-ions that a name gives are not always drawn.
Experiments:
mice or rats [1] = assay: Tail Flick Assay; type: in vivo
Excerpt: The "Tail Flick Assay" uses thermal pain of transient duration, and is a test in which the pain threshold of the mice or rats being analyzed has not been altered. It is useful for evaluating the ability of a compound or drug to increase the animal's pain threshold (i.e. prolong response latencies), rather than to restore normal thresholds.
The heat-induced response to the Tail Flick Assay is a reflex reaction mediated at the level of the spinal cord.
Opiate compounds having clinical efficacy as analgesics generally increase tail flick latencies. Thus, morphine and codeine are generally determined to be active in this test.
The Tail Flick Assay was performed generally in the manner described by G. Woolfe et al., "The Evaluation of the Analgesic Action of Pethidine Hydrochloride (Demerol)," J. Pharmacol. Exp. Ther., 80, 300, (1944), F. D'Amour et al., "A Method for Determining Loss of Pain Sensation," J. Pharmacol. Exp. Ther., 72, 74, 300-307 (1941), and E. Drower et al., "The Antinociceptive Effects of Prostaglandin Antagonists in the Rat," European Journal of Pharmacology, 133, 249-256 (1987).
Male Charles River albino mice and male Charles River Sprague-Dawley rats weighing 20 to 30 g and 200 to 250 g, respectively, was employed in this assay.
Tail flick response latencies (defined as the time that elapsed between the onset of a high intensity beam of light and the reflex removal of the mouse or rat's tail) was measured before (baseline) and again at fixed intervals after subcutaneous or intracerebro-ventricular administration of one of the compounds of the invention, or after the administration of saline (controls). The cut-off latencies established to prevent tissue damage in the animals are 12 seconds or 14 seconds in the mouse and rat, respectively, in the Tail Flick Assay. The significance of any increase in tail flick response latency is determined using analyses of variance.
One way analyses of variance were used to determine the significance of the effect of the compounds of the invention on response latencies.
"Activity" or "Inactivity" was determined at a particular concentration of the compound by a significant increase in tail flick latency above normal latencies.
The numbers in parentheses are calculated ED50 values.

μ opioid receptor = μ opioid receptor (Rattus norvegicus, UniProt P33535); assay: Opiate Binding Assay, μ receptor (3[H]-DAMGO displacement); conditions: rat forebrain membranes, 3[H]-DAMGO 2.0 nM, 37° C., pH 7.4
Sequence of μ opioid receptor (P33535 whole entry): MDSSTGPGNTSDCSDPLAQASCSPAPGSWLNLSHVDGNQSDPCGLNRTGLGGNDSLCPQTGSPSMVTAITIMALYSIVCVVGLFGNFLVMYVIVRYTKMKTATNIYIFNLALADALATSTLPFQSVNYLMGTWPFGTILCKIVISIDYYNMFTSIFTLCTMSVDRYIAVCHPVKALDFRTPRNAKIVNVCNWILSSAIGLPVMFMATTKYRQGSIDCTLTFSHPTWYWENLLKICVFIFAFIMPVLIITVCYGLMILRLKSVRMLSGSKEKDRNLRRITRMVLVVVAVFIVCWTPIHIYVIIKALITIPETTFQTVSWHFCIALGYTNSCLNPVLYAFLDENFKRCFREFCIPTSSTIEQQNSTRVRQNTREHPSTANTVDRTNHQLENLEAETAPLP

δ opioid receptor = δ opioid receptor (Rattus norvegicus, UniProt P33533); assay: Opiate Binding Assay, δ receptor (3[H]-DSLET displacement)
Sequence of δ opioid receptor (P33533 whole entry): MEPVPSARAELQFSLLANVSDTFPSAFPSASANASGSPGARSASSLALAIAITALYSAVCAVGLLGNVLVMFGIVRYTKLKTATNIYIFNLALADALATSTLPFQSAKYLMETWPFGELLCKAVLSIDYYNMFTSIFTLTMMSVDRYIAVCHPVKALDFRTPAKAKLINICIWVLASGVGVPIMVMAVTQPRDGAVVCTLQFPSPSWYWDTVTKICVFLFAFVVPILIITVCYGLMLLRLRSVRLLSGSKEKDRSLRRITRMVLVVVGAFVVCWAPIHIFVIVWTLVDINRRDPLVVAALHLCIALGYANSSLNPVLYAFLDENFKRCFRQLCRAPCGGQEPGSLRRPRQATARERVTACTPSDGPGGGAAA

mice or rats [2] = conditions: background statement; cited from earlier work

With Oc1ccc2c3c1O[C@H]1c4oc5ccccc5c4C[C@@]4(O)[C@@H](C2)N(Cc2ncc[nH]2)CC[C@]314 (relative stereo) [Example XV, 5,6,7,8,14,14bβ-Hexahydro-(1H-imidazol-2-ylmethyl)-4,8(R,α)-methano-4bS*-benzofuro[2,3-a]pyrido [4,3-b]carbazole-1,8aβ(9H)-diol, hydrochloride] the “Tail flick activity, intracerebroventricular” value (mice or rats [1]; intracerebroventricular) was ~ 10 nmoles, the “active dose in tail flick, intracerebroventricularly” value (mice or rats [1]; intracerebroventricular) was “ca. 10 nmoles” and the “Tail flick activity, subcutaneous (active at)” value (mice or rats [1]; subcutaneous) was “inactive”. For the same molecule, the “Mean IC50 Value, μ” value (μ opioid receptor) was “inactive” and the pIC50 (δ opioid receptor) was 7.10.
In the case of Cc1cc(CC(=O)O)n(C)c1C(=O)c1ccc(Cl)cc1 [Zomax], the “activity in tail flick test (general knowledge)” value (from here on “activity in tail flick test”) (mice or rats [2]) is given as “little activity”.
In the case of CC(=O)Oc1ccccc1C(=O)O [aspirin], the “activity in tail flick test” value (mice or rats [2]) is listed as “little activity”.
For COc1ccc2c3c1O[C@H]1[C@@H](O)C=C[C@H]4[C@@H](C2)N(C)CC[C@@]341 [codeine], the “activity in tail flick test” value (mice or rats [2]) is listed as “active”.
In the case of CN1CC[C@]23c4c5ccc(O)c4O[C@H]2[C@@H](O)C=C[C@H]3[C@H]1C5 [morphine], the “activity in tail flick test” value (mice or rats [2]) is given as “active”.
